Experimental findings from patent US10391098B2, “Antisense antibacterial compounds and methods” (priority 2014, dated 2019) are described below.

The test system of one series is E. coli SMS-3-5. Nature of the series: MIC of classical antibiotics with added PPMOs that target resistance genes. Format: cell-based. An excerpt:
FIGS. 15A-15B show the minimum inhibitory concentration (MIC) of classical antibiotics with added PPMOs that target resistance genes in E. coli SMS-3-5. (FIG. 15A) MIC of ampicillin with blaT-(RXR)4XB (PPMO#66). (FIG. 15B) MIC of chloramphemicol with cmlA-(RXR)4XB (PPMO#67). N=3.
Minimal Inhibitory Concentration Assays.
Modulating antibiotic resistance with PPMOs could be an alternative therapeutic strategy. As proof of concept, PPMOs were designed to target specific, non-essential antibiotic resistance genes. blaT is part of the TEM beta-lactamase family and is found in environmental strains of E. coli, like SMS-3-5.

For series [1], the system named is multi-drug-resistant strain of Acinetobacter baumannii (AYE). Put plainly: MIC of colistin, meropenem, tobramycin with added PPMO (microdilution), synergy by isoboles. The settings on record: for MIC: Acinetobacter baumannii.
Description: Minimal Inhibitory Concentration Assays. Minimal inhibitory concentration (MIC) assays were performed in Mueller Hinton II medium using the microdilution method as described by the Clinical and Laboratory Standards Institute (CLSI). Optical density (OD) of cultures was read in a microplate spectrophotometer at 595-600 nm. After 18-20 hours of aerobic growth (200-250 rpm) at 37° C., 100 μl cultures with an OD of <0.06 were scored as no growth.
Synergy Studies. MICs were performed with a PPMO and a classic antibiotic (as indicated) in a 96 well plate. The PPMO was diluted first horizontally down the plate and the classic antibiotic was diluted across the rows of the plate. Inhibition was determined by visual observation and OD600 (see Berenbaum et al., J Antimicrob Chemother 12:555-563, 1983; and Berenbaum, J Infect Dis 137:122-130, 1978). […] Synergy was quantified using the method of isoboles as described (see Tallarida, Genes Cancer. 2:1003-8, 2011): (Effective concentration of antibiotic/MIC of antibiotic)+(Effective concentration of PPMO/MIC of PPMO). Calculated values less than 1 indicated synergy.
The MIC of the antibiotics colistin, meropenem, and tobramycin was measured using the microdilution method of the Clinical Laboratory Standards Institute in a 96-well microtiter plate format. Multiple, identical dilution series of each antibiotic were included on each microtiter plate. In each dilution series of antibiotic, a fixed amount of PPMO was added. Each dilution series of antibiotic included a different concentration of PPMO.
Series [2] deals with A. baumannii AYE. Put plainly: MIC of tobramycin with adeA PPMO in nutrient rich and minimal media. In kind it is cell-based. The settings on record: for MIC of tobramycin with adeA PPMO: 8 μM adeA PPMO.
The test system of series [3] is Acinetobacter spp. (~34 strains). Nature of the series: PPMO MIC (IC75) in panel of Acinetobacter strains, rich and minimal media. The settings on record: nutrient rich MHII media.
Description: Bacteria. Bacterial strains were obtained through the clinical microbiology lab at UT Southwestern unless otherwise noted. Strains also included those purchased through ATCC, the E. coli Genetic Stock Center (Yale University), or received from collaborators. They included both genome-sequenced isolates as well as clinical isolates with varying levels of antibiotic resistance. Single colonies were grown aerobically to stationary phase (1-2 mLs at 37° C., 250 rpm) in Mueller Hinton cation-adjusted (MH II) broth (Becton-Dickinson Difco BBL, Franklin Lakes, N.J., USA). The OD600 was taken and a working stock of 5×10^5 was generated based on the individual strain's colony forming units (CFU)/mL/OD. Working stocks were diluted in 150 mM NaCl and plated on tryptic-soy agar w/5% sheep blood plate (Remel, Lenexa, Kans.) to verify the starting concentration. For minimal nutrient conditions, E. coli was incubated in MOPS minimal medium (Neidhart et al., J Bacteriol 119:736-747, 1974), and Acinetobacter was performed in AB minimal media (Agrobacterium minimal media) with 10 mM citrate (Clark, J Mol Biol 23:99-112, 1967).
Minimal Inhibitory Concentration Assays. […] Optical density (OD) of cultures was read in a microplate spectrophotometer at 595-600 nm. After 18-20 hours of aerobic growth (200-250 rpm) at 37° C., 100 μl cultures with an OD of <0.06 were scored as no growth. […]
Series [4] concerns A. baumannii AYE. Put plainly: Transmission electron microscopy of PPMO-treated bacteria. In kind it is cell-based. The note with it: 40 μM.

Like-named read-outs stand apart in the source and are kept apart here. {(RXR)4XB} = cell-penetrating peptide (R arginine, X 6-aminohexanoic acid, B beta-alanine), conjugated via its C-terminal beta-alanine linked through a pip-PDA moiety; {TEG} = triethylene glycol end group (as defined in the publication); {Acetyl} = acetyl cap

In the case of `O=C(N[C@H](CO)[C@H](O)c1ccc([N+](=O)[O-])cc1)C(Cl)Cl` [chloramphenicol, reference compound], in the series with E. coli SMS-3-5 (Escherichia coli, SMS35, chloramphenicol alone), the MIC was > 512 µg/mL.

Regarding `C[C@@H](O)[C@H]1C(=O)N2C(C(=O)O)=C(S[C@@H]3CN[C@H](C(=O)N(C)C)C3)[C@H](C)[C@H]12` [meropenem, reference compound], in series [1] (read-out: MIC of meropenem), the MIC was found to be 2 µg/mL.

In the case of `NC[C@H]1O[C@H](O[C@H]2[C@H](O)[C@@H](O[C@H]3O[C@H](CO)[C@@H](O)[C@H](N)[C@H]3O)[C@H](N)C[C@@H]2N)[C@H](N)C[C@@H]1O` [tobramycin, reference compound], the minimum inhibitory concentration (MIC) worked out at 64 µg/mL in series [1] (read-out: MIC of tobramycin) and 64 µg/mL with A. baumannii AYE [2] (Acinetobacter baumannii, MHII, read-out: MIC of tobramycin alone). Further, the “MIC of tobramycin alone” value in the series on A. baumannii AYE [2] (AB Minimal Media) was 64 µg/mL.

Turning to “PPMO#6: acpP PPMO ATATCGCTCAC; 5' (RXR)4XB, 3' acetyl (all phosphorodiamidate morpholino (PMO), 5' {(RXR)4XB}, 3' {Acetyl}; further chemistry not given here)”, the “IC75 MIC” value in series [3] amounted to 2000 nM.

On to “PPMO#7: acpP PPMO ATATCGCTCAC; 5' TEG, 3' (RXR)4XB (all phosphorodiamidate morpholino (PMO), 5' {TEG}, 3' {(RXR)4XB}; further chemistry not given here)”, for which, in series [1] (2 μM of PPMO), the “MIC of colistin in the presence of PPMO” value worked out at 0.25 µg/mL. Besides, the “MIC of tobramycin in the presence of PPMO” value in series [1] (4 μM PPMO) was determined as 2 µg/mL. For the same compound, the “synergy (method of isoboles; values less than 1 indicate synergy), colistin + PPMO” value in series [1] (colistin) was determined as 0.75. The “synergy (method of isoboles), meropenem + PPMO” value in series [1] (meropenem) is 0.75. Besides, in series [1] (tobramycin), the “synergy (method of isoboles), tobramycin + PPMO” value is 0.625. For the same compound, in the series on A. baumannii AYE [4] (6 hours of incubation, MHII media), the “cell morphology by TEM” value is reported as “cell wall disruption”. Moreover, in the series on A. baumannii AYE [4] (data not shown), the “earliest time at which cell wall disruption was seen” value stood at 3 h. For the same compound, the “IC75 MIC” value in series [3] came to 4000 nM.

On to “PPMO#65: adeA PPMO ATACTGTCCAA; 5' TEG, 3' (RXR)4XB (listed as DNA, chemistry not fully specified)”, for which the “MIC of tobramycin with adeA PPMO” value in the series on A. baumannii AYE [2] (MHII) stood at 4 µg/mL; in the series on A. baumannii AYE [2] (minimal media) it was 1 µg/mL.

Turning to “PPMO#66: blaT PPMO CTCTTCCTTTT; 5' TEG, 3' (RXR)4XB (listed as DNA, chemistry not fully specified)”, in the series with E. coli SMS-3-5 (FIG. 15A), the “effect of increasing concentrations of blaT PPMO on MIC of ampicillin” value was “progressively decreased”.

As for “PPMO#67: cml PPMO TCCTTCTGATT; 5' TEG, 3' (RXR)4XB (listed as DNA, chemistry not fully specified)”, the “effect of increasing concentrations of cmlA PPMO on MIC of chloramphenicol” value with E. coli SMS-3-5 (FIG. 15B) is reported as “progressively decreases in a dose-dependent fashion”.

In the case of colistin [reference compound], in series [1] (without PPMO), the MIC of colistin came to 1 µg/mL.
